This data set in a line: recombinant UMI read abundance after kanamycin selection (control-corrected) (log10(CPM+1)); higher = more efficient recombination; extreme values may be limits of the assay; sequences stand for … in AGTGCAGAGAAAATCGGCCAGTTTTCTCTGCCTGCAGTCCGCATGCCGTGGGACCCCTTGGGTTCTAACCTGTTGCCTAGATTTATGCAGCGGACTGCCTTTCTCCCAAAGTGATAAACCGG…AGGTTGGTTTCACT; site = the 11-nt donor. An outline of the steps:
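Each donor and donor-binding-loop pair was tracked by a 12-nt UMI on a plasmid carrying a promoterless kanamycin gene. With a second plasmid supplying a fixed target and T7-inducible IS621 bridge recombinase, the pool was plated in Escherichia coli on IPTG (0.07 mM) plus kanamycin or unselected. Sequencing of recombinant UMIs across the donor–target junction gave counts expressed as log10(CPM+1) after replicate averaging and control-derived scaling.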
For “TGCCGCTCATGGACCGGTTTTCCCGGTAATCCGTATTTGGA (site TGCCGCTCTTC)”, the “recombinant UMI read abundance (log10)” value was determined as 0.324.

Regarding “TGCCGGTCATGGACCGGTTTTCCCGGTAATCCGTATTTGCA (site TGCCGGTCTTG)”, the “recombinant UMI read abundance (log10)” value is 1.45.

Regarding “TGCCGTTCATGGACCGGTTTTCCCGGTAATCCGTATTTGAT (site TGCCGTTCTAT)”, the “recombinant UMI read abundance (log10)” value turned out to be 0.

“TGCCTCGCATGGACCGGTTTTCCCGGTAATCCGTATTTGAT (site TGCCTCGCTAT)”: the “recombinant UMI read abundance (log10)” value is 0.0124.

Regarding “TGCGTCACATGGACCGGTTTTCCCGGTAATCCGTATTTGCC (site TGCGTCACTGG)”, the “recombinant UMI read abundance (log10)” value came to 1.97.

In the case of “TGCTAATCATGGACCGGTTTTCCCGGTAATCCGTATTTGCT (site TGCTAATCTAG)”, the “recombinant UMI read abundance (log10)” value was determined as 1.08.

Consider “TGCTAGGCATGGACCGGTTTTCCCGGTAATCCGTATTTGGG (site TGCTAGGCTAC)”, for which the “recombinant UMI read abundance (log10)” value was determined as 0.0327.

For “TGCTAGGCATGGACCGGTTTTCCCGGTAATCCGTATTTGGG (site TGCTAGGCTCC)”, the “recombinant UMI read abundance (log10)” value is 0.00935.

With “TGCTAGGCATGGACCGGTTTTCCCGGTAATCCGTATTTGGG (site TGCTAGGCTGC)”, the “recombinant UMI read abundance (log10)” value is 0.

As to “TGCTAGGCATGGACCGGTTTTCCCGGTAATCCGTATTTGGG (site TGCTAGGCTTC)”, the “recombinant UMI read abundance (log10)” value turned out to be 0.00914.

For the sequence “TGCTAGTCATGGACCGGTTTTCCCGGTAATCCGTATTTGAC (site TGCTAGTCTGT)”, the “recombinant UMI read abundance (log10)” value is 0.

Turning to “TGCTCAACATGGACCGGTTTTCCCGGTAATCCGTATTTGGC (site TGCTCAACTGC)”, the “recombinant UMI read abundance (log10)” value was determined as 0.

As to “TGCTCATCATGGACCGGTTTTCCCGGTAATCCGTATTTGCT (site CGATCATCTAG)”, the “recombinant UMI read abundance (log10)” value came to 0.

On to “TGCTCATCATGGACCGGTTTTCCCGGTAATCCGTATTTGCT (site TGCTCATCTAG)”, for which the “recombinant UMI read abundance (log10)” value was found to be 1.08.

For the sequence “TGCTCCACATGGACCGGTTTTCCCGGTAATCCGTATTTGGA (site TGCTCCACTTC)”, the “recombinant UMI read abundance (log10)” value was 0.

As to “TGCTCCCCATGGACCGGTTTTCCCGGTAATCCGTATTTGGT (site TGCTCCCCTAC)”, the “recombinant UMI read abundance (log10)” value was determined as 0.0121.

As for “TGCTGCGCATGGACCGGTTTTCCCGGTAATCCGTATTTGTG (site TGCTGCGCTCA)”, the “recombinant UMI read abundance (log10)” value was found to be 0.0115.

Regarding “TGCTGGGCATGGACCGGTTTTCCCGGTAATCCGTATTTGGT (site TGCTAGGCTAC)”, the “recombinant UMI read abundance (log10)” value turned out to be 0.109.

“TGCTGGGCATGGACCGGTTTTCCCGGTAATCCGTATTTGGT (site TGCTCGGCTAC)”: the “recombinant UMI read abundance (log10)” value came to 0.0121.

As for “TGCTGGGCATGGACCGGTTTTCCCGGTAATCCGTATTTGGT (site TGCTGGGCTAC)”, the “recombinant UMI read abundance (log10)” value was found to be 0.306.

For the sequence “TGCTGGGCATGGACCGGTTTTCCCGGTAATCCGTATTTGGT (site TGCTTGGCTAC)”, the “recombinant UMI read abundance (log10)” value turned out to be 0.0187.

For the sequence “TGCTGTCCATGGACCGGTTTTCCCGGTAATCCGTATTTGTT (site TGCTGTCCTAA)”, the “recombinant UMI read abundance (log10)” value came to 0.00448.

For “TGGAAGACATGGACCGGTTTTCCCGGTAATCCGTATTTGCG (site AGGAAGACTTG)”, the “recombinant UMI read abundance (log10)” value stood at 0.

Take “TGGAAGACATGGACCGGTTTTCCCGGTAATCCGTATTTGCG (site TGGAAGACTCG)”: the “recombinant UMI read abundance (log10)” value amounted to 2.05.

For the sequence “TGGACAACATGGACCGGTTTTCCCGGTAATCCGTATTTGTG (site TGGACAACTCA)”, the “recombinant UMI read abundance (log10)” value worked out at 0.209.

As to “TGGACCTCATGGACCGGTTTTCCCGGTAATCCGTATTTGAG (site TGGACCTCTCT)”, the “recombinant UMI read abundance (log10)” value amounted to 0.96.

On to “TGGATCACATGGACCGGTTTTCCCGGTAATCCGTATTTGCT (site TGGATCACTAG)”, for which the “recombinant UMI read abundance (log10)” value came out at 1.72.

As for “TGGCAACCATGGACCGGTTTTCCCGGTAATCCGTATTTGCT (site TGGCAACCTAG)”, the “recombinant UMI read abundance (log10)” value is 0.

Turning to “TGGCAAGCATGGACCGGTTTTCCCGGTAATCCGTATTTGGC (site TGGCAAGCTGC)”, the “recombinant UMI read abundance (log10)” value stood at 0.585.

Consider “TGGCATACATGGACCGGTTTTCCCGGTAATCCGTATTTGTA (site TGGCATACTTA)”, for which the “recombinant UMI read abundance (log10)” value came out at 0.751.

Consider “TGGCCGGCATGGACCGGTTTTCCCGGTAATCCGTATTTGGA (site TGGCCGGCTAC)”, for which the “recombinant UMI read abundance (log10)” value came out at 0.0385.

As to “TGGCCGGCATGGACCGGTTTTCCCGGTAATCCGTATTTGGA (site TGGCCGGCTCC)”, the “recombinant UMI read abundance (log10)” value came out at 0.0416.

Turning to “TGGCCGGCATGGACCGGTTTTCCCGGTAATCCGTATTTGGA (site TGGCCGGCTGC)”, the “recombinant UMI read abundance (log10)” value amounted to 0.

For the sequence “TGGCCGGCATGGACCGGTTTTCCCGGTAATCCGTATTTGGA (site TGGCCGGCTTC)”, the “recombinant UMI read abundance (log10)” value worked out at 0.0151.

As to “TGGCCGGCATGGACCGGTTTTCCCGGTAATCCGTATTTGGG (site TGGCCGGCTAC)”, the “recombinant UMI read abundance (log10)” value came out at 0.0282.

Regarding “TGGCCGGCATGGACCGGTTTTCCCGGTAATCCGTATTTGGG (site TGGCCGGCTCC)”, the “recombinant UMI read abundance (log10)” value turned out to be 0.059.

As for “TGGCCGGCATGGACCGGTTTTCCCGGTAATCCGTATTTGGG (site TGGCCGGCTGC)”, the “recombinant UMI read abundance (log10)” value was 0.

As to “TGGCCGGCATGGACCGGTTTTCCCGGTAATCCGTATTTGGG (site TGGCCGGCTTC)”, the “recombinant UMI read abundance (log10)” value was found to be 0.00405.

As for “TGGCCGGCATGGACCGGTTTTCCCGGTAATCCGTATTTGTC (site TGGCCGGCTGA)”, the “recombinant UMI read abundance (log10)” value was determined as 0.815.

On to “TGGCCGGCATGGACCGGTTTTCCCGGTAATCCGTATTTGTC (site TGGCCGGCTGC)”, for which the “recombinant UMI read abundance (log10)” value amounted to 0.

With “TGGCCGGCATGGACCGGTTTTCCCGGTAATCCGTATTTGTC (site TGGCCGGCTGG)”, the “recombinant UMI read abundance (log10)” value came to 0.

Take “TGGCCGGCATGGACCGGTTTTCCCGGTAATCCGTATTTGTC (site TGGCCGGCTGT)”: the “recombinant UMI read abundance (log10)” value stood at 0.

On to “TGGCGGGCATGGACCGGTTTTCCCGGTAATCCGTATTTGGC (site TGGCAGGCTGC)”, for which the “recombinant UMI read abundance (log10)” value is 1.38.

Take “TGGCGGGCATGGACCGGTTTTCCCGGTAATCCGTATTTGGC (site TGGCCGGCTGC)”: the “recombinant UMI read abundance (log10)” value is 0.00581.

Turning to “TGGCGGGCATGGACCGGTTTTCCCGGTAATCCGTATTTGGC (site TGGCGGGCTGC)”, the “recombinant UMI read abundance (log10)” value came to 1.79.

With “TGGCGGGCATGGACCGGTTTTCCCGGTAATCCGTATTTGGC (site TGGCTGGCTGC)”, the “recombinant UMI read abundance (log10)” value was 1.01.

As to “TGGCGGGCATGGACCGGTTTTCCCGGTAATCCGTATTTGTT (site TGGCGGGCTAA)”, the “recombinant UMI read abundance (log10)” value amounted to 0.701.

Take “TGGCTCCCATGGACCGGTTTTCCCGGTAATCCGTATTTGGT (site TGGCTCCCTAC)”: the “recombinant UMI read abundance (log10)” value amounted to 0.203.

For the sequence “TGGCTGGCATGGACCGGTTTTCCCGGTAATCCGTATTTGGC (site TGGCAGGCTGC)”, the “recombinant UMI read abundance (log10)” value came to 0.

Turning to “TGGCTGGCATGGACCGGTTTTCCCGGTAATCCGTATTTGGC (site TGGCCGGCTGC)”, the “recombinant UMI read abundance (log10)” value was determined as 0.

For the sequence “TGGCTGGCATGGACCGGTTTTCCCGGTAATCCGTATTTGGC (site TGGCGGGCTGC)”, the “recombinant UMI read abundance (log10)” value worked out at 0.

As to “TGGCTGGCATGGACCGGTTTTCCCGGTAATCCGTATTTGGC (site TGGCTGGCTGC)”, the “recombinant UMI read abundance (log10)” value came out at 1.33.

Take “TGGGCAACATGGACCGGTTTTCCCGGTAATCCGTATTTGTG (site TGGGCAACTCA)”: the “recombinant UMI read abundance (log10)” value amounted to 0.0056.

For “TGGGCACCATGGACCGGTTTTCCCGGTAATCCGTATTTGCA (site AGGGCACCTTG)”, the “recombinant UMI read abundance (log10)” value was determined as 0.00499.

Consider “TGGGCACCATGGACCGGTTTTCCCGGTAATCCGTATTTGCA (site CGGGCACCTTG)”, for which the “recombinant UMI read abundance (log10)” value is 0.00478.

For “TGGGCACCATGGACCGGTTTTCCCGGTAATCCGTATTTGCA (site GGGGCACCTTG)”, the “recombinant UMI read abundance (log10)” value came out at 0.

As for “TGGGCACCATGGACCGGTTTTCCCGGTAATCCGTATTTGCA (site TGGGCACCTTG)”, the “recombinant UMI read abundance (log10)” value came to 0.00258.

With “TGGGCGGCATGGACCGGTTTTCCCGGTAATCCGTATTTGAT (site TGGGCGGCTAT)”, the “recombinant UMI read abundance (log10)” value is 1.11.

In the case of “TGGTAAGCATGGACCGGTTTTCCCGGTAATCCGTATTTGGC (site TGGTAAGCTGC)”, the “recombinant UMI read abundance (log10)” value was 2.86.

As to “TGGTAATCATGGACCGGTTTTCCCGGTAATCCGTATTTGTG (site TGGTAATCTCA)”, the “recombinant UMI read abundance (log10)” value worked out at 1.65.

Turning to “TGGTCACCATGGACCGGTTTTCCCGGTAATCCGTATTTGTC (site GTACTCACTCC)”, the “recombinant UMI read abundance (log10)” value was determined as 0.00879.

Take “TGGTGACCATGGACCGGTTTTCCCGGTAATCCGTATTTGTC (site TGGTGACCTGA)”: the “recombinant UMI read abundance (log10)” value was 0.

Turning to “TGTAAACCATGGACCGGTTTTCCCGGTAATCCGTATTTGAC (site TGTAAACCTGT)”, the “recombinant UMI read abundance (log10)” value amounted to 0.

“TGTAAACCATGGACCGGTTTTCCCGGTAATCCGTATTTGAC (site TGTACACCTGT)”: the “recombinant UMI read abundance (log10)” value came to 0.

Take “TGTAAACCATGGACCGGTTTTCCCGGTAATCCGTATTTGAC (site TGTAGACCTGT)”: the “recombinant UMI read abundance (log10)” value came to 0.

With “TGTAAACCATGGACCGGTTTTCCCGGTAATCCGTATTTGAC (site TGTATACCTGT)”, the “recombinant UMI read abundance (log10)” value is 0.

In the case of “TGTAAGACATGGACCGGTTTTCCCGGTAATCCGTATTTGGC (site TGTAAGACTGC)”, the “recombinant UMI read abundance (log10)” value came out at 0.

Turning to “TGTACAACATGGACCGGTTTTCCCGGTAATCCGTATTTGAG (site TGTACAACTCT)”, the “recombinant UMI read abundance (log10)” value worked out at 0.0145.

The values are drawn from the supplement of paper PMC11208160.
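Note: IS621 bridge recombinase in Escherichia coli cells against a fixed T5 target plasmid.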
